“And” between values parts separate entries of the source, which are not always exact repeats. Equal entries are not always repeated.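 Dose response: 5 concentrations. Exposure: 48 h. Format: 96-well plates. Endpoint: linear interpolation; highest concentration if not reached. Abbreviation: GI50, concentration required for 50% inhibition of growth. At the TGI there is no net growth.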
Legend:
Test in all cases: NCI anticancer screen, dose series, 48 h
A498 renal = system: A498 renal
A549 NSCLC = system: A549 NSCLC
HCC-2998 colon = system: HCC-2998 colon
IGROV1 ovarian = system: IGROV1 ovarian
KM12 colon = system: KM12 colon
MDA-MB-231 breast = system: MDA-MB-231 breast
MOLT-4 leukemia = system: MOLT-4 leukemia
NCI-H460 lung = system: NCI-H460 lung
SF-539 CNS = system: SF-539 CNS
UO-31 renal = system: UO-31 renal

Row | SMILES | GI50 (A498 renal) | TGI (A498 renal) | GI50 (A549 NSCLC) [nM] | TGI (A549 NSCLC) | TGI (HCC-2998 colon) [µM] | GI50 (IGROV1 ovarian) [nM] | TGI (IGROV1 ovarian) | GI50 (KM12 colon) | TGI (KM12 colon) | GI50 (MDA-MB-231 breast) | TGI (MDA-MB-231 breast) | GI50 (MOLT-4 leukemia) [nM] | TGI (MOLT-4 leukemia) | GI50 (NCI-H460 lung) [nM] | TGI (NCI-H460 lung) | GI50 (SF-539 CNS) | TGI (SF-539 CNS) | GI50 (UO-31 renal) [nM] | TGI (UO-31 renal) | GI50 (HCC-2998 colon)
1 | Cc1nc2c(N3CCCC3)nc(N3CCNCC3)nc2nc1NCc1ccccc1 | 14200 nM | 9.77 µM and 27.2 µM | 5450 | 12.6 µM and 14.2 µM | 2.95 | 4490 | 9.84 µM and 15.1 µM | 6530 nM | 26.6 µM and 13.3 µM | 5670 nM | 12.1 µM and 10.1 µM | 3340 | 15.1 µM and > 21.2 µM | 5970 | 13.3 µM and 13.4 µM | 6210 nM | 13.4 µM and 7 µM | 1480 | 6.06 µM and 6.39 µM | –
2 | Cc1ncc(C(=O)Nc2ccc(CN3CCN(C)CC3)c(C(F)(F)F)c2)cc1C#Cc1c(N)ncc2ccccc12 | 485 nM | 0.939 µM | 488 | 1.03 µM | 0.899 | 208 | 0.823 µM | 4.44 nM | 0.479 µM | 163 nM | 0.65 µM | 228 | 0.836 µM | 447 | 0.952 µM | 470 nM | 0.914 µM | 460 | 1.27 µM | 446 nM
3 | Cc1cnccc1N=Nc1ccc(N(C)C)cc1 | – | 94.1 µM | – | > 100 µM | 49.6 | – | 99.6 µM | – | > 100 µM | – | 70.6 µM | – | 79.5 µM | – | > 100 µM | – | 69.2 µM | – | > 100 µM | –
4 | Nc1ccc(C(OC(=O)c2cc3ccccc3c(Cc3c(O)c(C(=O)OC(c4ccc(N)cc4)(c4ccc(N)cc4)c4ccc(N)cc4)cc4ccccc34)c2O)(c2ccc(N)cc2)c2ccc(N)cc2)cc1 | 548 nM | 5.25 µM | 774 | 21.7 µM | 15.5 | 9890 | 85 µM | 608 nM | 12.7 µM | 2800 nM | 8.76 µM | 4330 | 86.1 µM | 728 | 7.24 µM | 362 nM | 14.2 µM | 3660 | 63.4 µM | 1830 nM
5 | O=C(COc1cccc(/C=C2\Oc3ccc4ccccc4c3C2=O)c1)c1ccc(Cl)cc1 | > 100000 nM | > 100 µM | > 100000 | > 100 µM | > 100 | 246 | 9.14 µM | 30200 nM | > 100 µM | 43500 nM | > 100 µM | 3130 | 11.1 µM | > 100000 | > 100 µM | > 100000 nM | > 100 µM | 50200 | > 100 µM | > 100000 nM
6 | CSc1ccc(SC2c3ccc(C)cc3Oc3nc(N)c(C#N)c(N)c32)cc1 (configuration not stated) | 2050 nM | 3.95 µM | 1820 | 3.68 µM | 3.28 | 1280 | 3.05 µM | 1960 nM | 3.65 µM | 1600 nM | 3 µM | 2390 | 6.05 µM | 2030 | 4.07 µM | 1560 nM | 2.98 µM | 1200 | 2.43 µM | 1780 nM
7 | COc1ccc(Cn2cc3c(c2-c2cc(OC)c(OC)c(OC)c2)CCc2cnoc2-3)cc1N | 23.9 nM | 0.524 µM | 82.1 | > 100 µM | > 42 | 81.8 | > 72.6 µM | 40.1 nM | 1.94 µM | 158 nM | > 100 µM | 64.8 | > 45.9 µM | 37.7 | 5.22 µM | 34.4 nM | > 100 µM | 228 | > 50.9 µM | 88.2 nM
8 | CN(CC(=O)O)Cc1oc(CO)cc(=O)c1O | – | > 100 µM | – | > 100 µM | > 100 | – | > 100 µM | – | > 100 µM | – | > 100 µM | – | > 100 µM | – | > 100 µM | – | > 100 µM | – | > 100 µM | –
9 | Cn1cnc2c(F)c(Nc3ccc(Br)cc3F)c(C(=O)NOCCO)cc21 | 18.4 nM and 31.4 nM | 0.275 µM and 0.394 µM | 5870 | > 100 µM | 4.51 | – | > 100 µM | 264 nM and 445 nM | > 100 µM | 111 nM and 837 nM | > 100 µM | > 100000 | > 100 µM | > 100000 | > 100 µM | > 3240 nM and 21500 nM | > 100 µM | 7410 | > 100 µM | 16.2 nM and 34 nM
10 | Cc1ccc2nc(-c3ccc(N)c4ccccc34)[nH]c2c1 | 95.3 nM | 16.7 µM | 781 | > 46.2 µM | 12.1 | 424 | > 42.4 µM | 2460 nM | 13.5 µM | 89.9 nM | 13.3 µM | 1360 | 17.3 µM | 3970 | – | 60.7 nM | 1.64 µM | 437 | 36.4 µM | 356 nM
11 | CCN(CC)CCn1c2ccc(OC)cc2c2sc3cc(OC)ccc3c(=O)c21 | 1120 nM | 2.35 µM | 1590 | 5.71 µM | 3.14 | 1530 | 3.61 µM | 2000 nM | 4.32 µM | 1540 nM | 3.31 µM | 383 | 1.89 µM | 1080 | 2.52 µM | 1660 nM | 3.05 µM | 1350 | 3.02 µM | 1480 nM
12 | COc1ccc(-c2cc(-c3cccc(NS(C)(=O)=O)c3)nc(N)c2C#N)cc1 | 116 nM | 54 µM | 109 | > 93.4 µM | 2.44 | 119 | > 34.8 µM | 118 nM | 9.12 µM | 335 nM | 5.14 µM | 235 | > 100 µM | 87.1 | 10.8 µM | 47.8 nM | 0.491 µM | 124 | > 43.7 µM | 185 nM
13 | C=C(CNC(=O)c1ccccc1)c1ccc(C(=O)Nc2ccccc2N)cc1 | 1370 nM | 7.58 µM | 9520 | > 100 µM | > 100 | 19500 | > 100 µM | 5110 nM | > 100 µM | 5560 nM | 45.1 µM | 1490 | > 100 µM | 8020 | > 100 µM | 1380 nM | > 100 µM | 2780 | > 100 µM | 9300 nM

From PubChem BioAssay (NCI)
